Our source for the IC50 values is patent publication US10858365B2, “Triazolo-pyrimidine compounds and uses thereof” (Dizal (Jiangsu) Pharmaceutical Co., Ltd., priority 2018, dated 2020).

Common to all, as to assay type: cell-based
In one experiment the target is mA2a (Mus musculus (Mouse), UniProt Q60613). The experiment in a line: cAMP inhibition assay in mA2a/CHO cells. The following applies: adenosine stimulation, read-out: cAMP & FLIPR IC50 (nM) mA2a. Here is the method: (§1) hA2a/CHO, hA2b/CHO and mA2a/CHO (Genscript) were plated at 5×10^3 cells/well into 384-well polystyrene plates at the day of experiment. Compounds were pre-incubated with cells for 30 min at 37° C., 5% CO2. Then […] adenosine was added to the cells and incubated for 30 min at 37° C., 5% CO2. Detection reagent (CISBIO) was added and the plates were incubated for 60 min at room temperature. The signal was captured by Envision.
Sequence of mA2a (Q60613 whole entry): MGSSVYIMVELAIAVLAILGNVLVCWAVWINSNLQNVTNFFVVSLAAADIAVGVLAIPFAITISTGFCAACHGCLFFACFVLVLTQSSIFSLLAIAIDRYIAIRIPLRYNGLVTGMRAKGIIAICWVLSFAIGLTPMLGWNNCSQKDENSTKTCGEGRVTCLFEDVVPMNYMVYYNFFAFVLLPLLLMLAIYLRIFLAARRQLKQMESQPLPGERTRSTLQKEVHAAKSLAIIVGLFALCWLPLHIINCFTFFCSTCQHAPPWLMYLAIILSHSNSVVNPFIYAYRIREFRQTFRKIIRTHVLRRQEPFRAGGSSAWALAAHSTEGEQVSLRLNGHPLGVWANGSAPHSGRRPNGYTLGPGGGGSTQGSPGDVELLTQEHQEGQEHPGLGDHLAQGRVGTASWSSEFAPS

In the next experiment the target is hA2a (Homo sapiens (Human), UniProt P29274). The experiment in a line: cAMP inhibition assay in hA2a/CHO cells. As to conditions: adenosine stimulation, read-out: cAMP & FLIPR IC50 (nM) hA2a. Here is the method:
as §1
FLIPR™ and cAMP inhibition activities of exemplary compounds in different adenosine receptor over-expressing cell lines are shown in Table 4 below.

The next experiment concerns the target hA2b (Homo sapiens (Human), UniProt P29275). Nature of the experiment: cAMP inhibition assay in hA2b/CHO cells. The following applies: adenosine stimulation, read-out: cAMP & FLIPR IC50 (nM) hA2b. Here is the method:
as §1

The target of the next experiment is hA1 (Homo sapiens (Human), UniProt P30542). Nature of the experiment: FLIPR inhibition assay in hADORA1/CHO (hA1 expressing) cells. As to conditions: hADORA1/CHO cells, FLIPR calcium, adenosine stimulation; read-out: cAMP & FLIPR IC50 (nM) hA1. Here is the method: hADORA1/CHO (hA1 expressing) cells (Genscript) were plated at 1×10^4 cells/well into 384-well polystyrene plates one day before starting the experiment. On the day of experiment, the supernatant was discard and replaced with 40 µL of dye (FLIPR calcium 5 Assay Kit) per well and the plates were incubated for 60 mins at 37° C. plus 5% CO2. Then testing compounds were added at different concentrations for FLIPR™ inhibition assay. After a 400 s incubation with compound, […] adenosine was added into the cells, and the signal was captured by FLIPR.
Sequence of hA1 (P30542 whole entry): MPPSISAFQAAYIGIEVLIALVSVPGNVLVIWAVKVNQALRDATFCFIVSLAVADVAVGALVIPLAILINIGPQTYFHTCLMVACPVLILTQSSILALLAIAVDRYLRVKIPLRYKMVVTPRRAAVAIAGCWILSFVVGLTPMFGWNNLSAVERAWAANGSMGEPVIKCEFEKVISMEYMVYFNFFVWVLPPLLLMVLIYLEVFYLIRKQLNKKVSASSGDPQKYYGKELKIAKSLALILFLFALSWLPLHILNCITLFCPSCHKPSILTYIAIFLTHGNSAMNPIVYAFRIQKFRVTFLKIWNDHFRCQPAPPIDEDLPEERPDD

Sequence of hA2a (P29274 whole entry): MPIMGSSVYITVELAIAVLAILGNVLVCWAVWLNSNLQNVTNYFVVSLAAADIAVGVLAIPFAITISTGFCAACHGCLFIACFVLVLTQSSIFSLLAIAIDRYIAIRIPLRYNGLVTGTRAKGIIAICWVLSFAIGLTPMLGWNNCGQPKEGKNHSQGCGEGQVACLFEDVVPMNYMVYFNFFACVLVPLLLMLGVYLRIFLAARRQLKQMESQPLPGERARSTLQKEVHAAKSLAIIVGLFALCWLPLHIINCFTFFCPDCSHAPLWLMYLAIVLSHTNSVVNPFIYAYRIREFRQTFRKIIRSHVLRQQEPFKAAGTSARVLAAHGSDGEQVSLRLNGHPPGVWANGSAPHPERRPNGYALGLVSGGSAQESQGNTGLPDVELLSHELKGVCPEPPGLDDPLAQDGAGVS
Sequence of hA2b (P29275 whole entry): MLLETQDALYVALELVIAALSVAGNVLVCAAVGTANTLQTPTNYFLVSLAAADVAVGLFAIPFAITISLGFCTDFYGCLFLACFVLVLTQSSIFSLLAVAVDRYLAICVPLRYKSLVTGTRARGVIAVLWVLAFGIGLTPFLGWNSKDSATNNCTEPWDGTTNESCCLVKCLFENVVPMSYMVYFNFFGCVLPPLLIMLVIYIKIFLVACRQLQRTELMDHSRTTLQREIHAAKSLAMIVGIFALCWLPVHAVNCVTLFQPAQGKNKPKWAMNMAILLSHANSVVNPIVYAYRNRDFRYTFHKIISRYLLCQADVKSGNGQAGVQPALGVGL

A word on the IC50: it is the point on the concentration scale where inhibition reaches its midpoint. Take `Cc1cnc2ccc(-c3c(-c4ccc(F)cc4)nc(N)n4nc(CC5CCOC5)nc34)cn12` (single isomer, unassigned; isomer 1) [Example 105-1, 7-(4-fluorophenyl)-8-(3-methylimidazo[1,2-a]pyridin-6-yl)-2-((tetrahydrofuran-3-yl)methyl)-[l,2, 4]triazolo[1,5-c]pyrimidin-5-amine(isomer 1)]: the IC50 is 1 nM on mA2a, 0.1 nM at hA2a, 47.5 nM at hA2b and 14 nM on hA1.

Consider `Cn1cnc2ccc(-c3c(-c4ncco4)nc(N)n4nc(Cc5c(F)cccc5F)nc34)cc21` [Example 91, 2-(2,6-difluorobenzyl)-8-(1-methyl-1H-benzo[d]imidazol-6-yl)-7-(oxazol-2-yl)-[1,2,4]triazolo[1,5-c]pyrimidin-5-amine], for which the IC50 worked out at 5.1 nM on mA2a, 2.6 nM on hA2a, 102 nM on hA2b and 206 nM on hA1.

For `Cn1cc(-c2c(Cl)nc(N)n3nc(Cc4c(F)cccc4F)nc23)ccc1=O` [Example 28, 5-(5-amino-7-chloro-2-(2,6-difluorobenzyl)-[1,2,4]triazolo[1,5-c]pyrimidin-8-yl)-1-methylpyridin-2(1H)-one], the half-maximal inhibitory concentration (IC50) was determined as 217 nM on mA2a, 158 nM at hA2a, 6420 nM on hA2b and 1150 nM at hA1.

With `Cn1nc(-c2c(-c3ccc(F)cc3)nc(N)n3nc(Cc4ncccc4F)nc23)ccc1=O` [Example 30, 6-(5-amino-7-(4-fluorophenyl)-2-((3-fluoropyridin-2-yl)methyl)-[1,2,4]triazolo[1,5-f]pyrimidin-8-yl)-2-methylpyridazin-3(2H)-one], the IC50 came to 25 nM on mA2a, 5.9 nM on hA2a, 160 nM at hA2b and 16 nM at hA1.

For `Nc1nc(-c2ccc(F)cc2)c(-c2ccc3nncn3c2)c2nc(Cc3ncccc3F)nn12` [Example 72, 8-([1,2,4]triazolo[4,3-a]pyridin-6-yl)-7-(4-fluorophenyl)-2-((3-fluoropyridin-2-yl)methyl)-[1,2,4]triazolo[1,5-c]pyrimidin-5-amine], the IC50 was found to be 107 nM on mA2a, 37 nM on hA2a, 1050 nM on hA2b and 9.7 nM on hA1.

Take `Cn1cc(-c2c(-c3ccccc3Cl)nc(N)n3nc(Cc4ncccc4F)nc23)ccc1=O` [Example 78, 5-(5-amino-7-(2-chlorophenyl)-2-((3-fluoropyridin-2-yl)methyl)-[1,2,4]triazolo[1,5-c]pyrimidin-8-yl)-l-methylpyridin-2(1H)-one]: the concentration for half-maximal inhibition (IC50) turned out to be 324 nM at mA2a, 135 nM at hA2a, 1260 nM on hA2b and 1160 nM on hA1.

`Cc1cnc2ccc(-c3c(N4CCC4)nc(N)n4nc(Cc5c(F)cccc5F)nc34)cn12` [Example 124, 7-(azetidin-l-yl)-2-(2,6-difluorobenzyl)-8-(3-methylimidazo[1,2-a]pyridin-6-yl)-[1,2,4]triazolo [1,5-c]pyrimidin-5-amine]: the concentration for half-maximal inhibition (IC50) stood at 3.9 nM on mA2a, 0.1 nM on hA2a, 23.3 nM on hA2b and 16 nM on hA1.

`Cn1cc(-c2c(-c3ccc4c(ccn4C)c3)nc(N)n3nc(Cc4ncccc4F)nc23)ccc1=O` [Example 97, 5-(5-amino-2-((3-fluoropyridin-2-yl)methyl)-7-(1-methyl-1H-indol-5-yl)-[1,2,4]triazolo[1,5-c]pyrimidin-8-yl)-1-methylpyridin-2(1H)-one]: the IC50 is 120 nM at mA2a, 47 nM on hA2a, 1720 nM on hA2b and 19 nM on hA1.

Consider `Cc1coc(-c2nc(N)n3nc(Cc4c(F)cccc4F)nc3c2-c2ccc(=O)n(C)c2)n1` [Example 27, 5-(5-amino-2-(2,6-difluorobenzyl)-7-(4-methyloxazol-2-yl)-[1,2,4]triazolo[1,5-c]pyrimidin-8-yl)-1-methylpyridin-2(1H)-one], for which the IC50 at mA2a turned out to be 245 nM; at hA2a it was 139 nM; at hA2b it was 10000 nM; at hA1, 112 nM.

`Cc1cc(-c2c(-c3ncco3)nc(N)n3nc(Cc4c(F)cccc4F)nc23)cc(C2CC2)n1` [Example 84, 8-(2-cyclopropyl-6-methylpyridin-4-yl)-2-(2,6-difluorobenzyl)-7-(oxazol-2-yl)-[1,2,4]triazolo[1,5-c]pyrimidin-5-amine]: the half-inhibitory concentration (IC50) on mA2a worked out at 428 nM; at hA2a, 60 nM; on hA2b, 10000 nM; at hA1, 2720 nM.

Turning to `Cc1cc(-c2c(-c3ncco3)nc(N)n3nc(Cc4c(F)cccc4F)nc23)cc(C#N)n1` [Example 83, 4-(5-amino-2-(2,6-difluorobenzyl)-7-(oxazol-2-yl)-[1,2,4]triazolo[1,5-c]pyrimidin-8-yl)-6-methylpicolinonitrile], the IC50 is 76 nM at mA2a, 18 nM at hA2a, 10000 nM at hA2b and 923 nM at hA1.

On to `CC(C)n1cc(-c2c(-c3ncco3)nc(N)n3nc(Cc4c(F)cccc4F)nc23)ccc1=O` [Example 79, 5-(5-amino-2-(2,6-difluorobenzy1)-7-(oxazol-2-yl)-[1,2,4]triazolo[1,5-c]pyrimidin-8-yl)-l-isopropylpyrdin-2(1H)-one], for which the IC50 on mA2a was 0.9 nM; at hA2a, 0.7 nM; on hA2b it was 45 nM; at hA1, 28 nM.

Take `Nc1nc(-c2ccc(F)cc2)c(-c2ccc(=O)n(C3CC3)c2)c2nc(Cc3ncccc3F)nn12` [Example 36, 5-(5-amino-7-(4-fluorophenyl)-2-((3-fluoropyridin-2-yl)methyl)-[1,2,4]triazolo[1,5-c]pyrimidin-8-yl)-1-cyclopropylpyridin-2(1H)-one]: the IC50 worked out at 31 nM on mA2a, 20 nM on hA2a, 408 nM at hA2b and 45 nM at hA1.

Regarding `Nc1nc(-c2ccc(F)cc2)c(-c2ccc3nccnc3c2)c2nc(Cc3ncccc3F)nn12` [Example 96, 7-(4-fluorophenyl)-2-((3-fluoropyridin-2-yl)methyl)-8-(quinoxalin-6-yl)-[l,2,4]triazolo[l,5-c] pyrimidin-5-amine], the IC50 at mA2a turned out to be 123 nM; at hA2a, 25 nM; on hA2b, 3800 nM; at hA1, 681 nM.

For the compound `CC(C)n1cc(-c2c(-c3ncco3)nc(N)n3nc(Cc4ncccc4F)nc23)ccc1=O` [Example 80, 5-(5-amino-2-((3-fluoropyridin-2-yl)methyl)-7-(oxazol-2-yl)-[1,2,4]triazolo[1,5-c]pyrimidin-8-yl)-1-isopropylpyridin-2(1H)-one], the IC50 at mA2a is 4.9 nM; on hA2a it was 3.6 nM; on hA2b it was 186 nM; on hA1, 25 nM.

`Cn1cc(-c2c(-c3ccc(Cl)cc3)nc(N)n3nc(Cc4ncccc4F)nc23)ccc1=O` [Example 56, 5-(5-amino-7-(4-chlorophenyl)-2-((3-fluoropyridin-2-yl)methyl)-[1,2,4]triazolo[1,5-c]pyrimidin-8-yl)-l-methylpyridin-2(1H)-one]: the IC50 at mA2a was 36 nM; at hA2a, 22 nM; on hA2b it was 142 nM; at hA1, 34 nM.

As to `Cn1cc(-c2c(-c3ccc(F)cc3F)nc(N)n3nc(Cc4ncccc4F)nc23)ccc1=O` [Example 64, 5-(5-amino-7-(2,4-difluorophenyl)-2-((3-fluoropyridin-2-yl)methyl)-[1,2,4]triazolo[1,5-c]pyrimidin-8-yl)-l-methylpyridin-2(lH)-one], the IC50 on mA2a worked out at 137 nM; at hA2a, 68 nM; on hA2b it was 742 nM; at hA1, 97 nM.

Take `Cn1cc(-c2c(-c3ccc(F)cc3)nc(N)n3nc(Cc4cscn4)nc23)ccc1=O` [Example 58, 5-[5-amino-7-(4-fluorophenyl)-2-[(1,3-thiazol-4-yl)methyl]-[1,2,4]triazolo[1,5-c]pyrimidin-8-yl]-1-methyl-1,2-dihydropyridin-2-one]: the IC50 on mA2a amounted to 47 nM; on hA2a, 29 nM; on hA2b, 2290 nM; on hA1, 25 nM.

With `Cc1cnc2ccc(-c3c(N(C)C)nc(N)n4nc(Cc5ncccc5F)nc34)cn12` [Example 100, 2-[(3-fluoropyridin-2-yl)methyl]-N7,N7-dimethyl-8-[3-methylimidazo[1,2-a]pyridin-6-yl]-[1,2,4]triazolo[1,5-c]pyrimidine-5,7-diamine], the IC50 on mA2a is 3.5 nM; at hA2a, 1.2 nM; at hA2b, 38 nM; on hA1 it was 11.8 nM.

On to `Cn1cnc2ccc(-c3c(-c4ccc(F)cc4)nc(N)n4nc(Cc5ncccc5F)nc34)cc21` [Example 69, 7-(4-fluorophenyl)-2-((3-fluoropyridin-2-yl)methyl)-8-(1-methyl-1H-benzo[d]imidazol-6-yl)-[1,2, 4]triazolo[l,5-c]pyrimidin-5-amine], for which the IC50 was determined as 0.3 nM at mA2a, 0.1 nM at hA2a, 4.69 nM on hA2b and 22 nM on hA1.
